Measured values published in ChEMBL document CHEMBL3217638, “Synthetic modulators of the retinoic acid receptor-related orphan receptors” (Medchemcomm, 2013).

Tests used:
[1] = target: T1, Oxysterols receptor LXR-alpha (Homo sapiens) (UniProt Q13133); test: Activation of GAL4-fused LXR alpha (unknown origin) expressed in HEK293T cells after 20 hrs relative to T0901317; format: cell-based; conditions: HEK-293T
T1 sequence (whole entry): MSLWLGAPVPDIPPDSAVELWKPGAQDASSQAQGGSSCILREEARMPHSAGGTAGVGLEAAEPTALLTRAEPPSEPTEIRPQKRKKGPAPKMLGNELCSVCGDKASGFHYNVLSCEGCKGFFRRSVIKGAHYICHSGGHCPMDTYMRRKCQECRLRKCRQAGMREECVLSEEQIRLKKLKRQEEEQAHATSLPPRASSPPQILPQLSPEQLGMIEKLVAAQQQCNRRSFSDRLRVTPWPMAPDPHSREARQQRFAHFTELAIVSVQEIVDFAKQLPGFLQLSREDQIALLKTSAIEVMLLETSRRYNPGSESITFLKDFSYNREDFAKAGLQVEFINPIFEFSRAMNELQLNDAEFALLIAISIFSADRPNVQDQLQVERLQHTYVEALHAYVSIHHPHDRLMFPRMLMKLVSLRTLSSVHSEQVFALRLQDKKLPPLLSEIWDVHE

[2] = Plasma concentration in mouse at 10 mg/kg, ip after 0.5 hrs; format: ADME, organism-based; design: dose 10 mg/kg, route intraperitoneal
[3] = Plasma concentration in mouse at 10 mg/kg, ip after 4 hrs; format: ADME, organism-based; design: dose 10 mg/kg, route intraperitoneal
[4] = target: T2, Nuclear receptor ROR-alpha (Homo sapiens, UniProt P35398); test: Inverse agonist activity at GAL4-fused ROR alpha (unknown origin) expressed in HEK293 cells assessed as inhibition of transcriptional activity after 24 hrs by luciferase reporter gene assay; format: cell-based
T2 sequence (P35398 whole entry): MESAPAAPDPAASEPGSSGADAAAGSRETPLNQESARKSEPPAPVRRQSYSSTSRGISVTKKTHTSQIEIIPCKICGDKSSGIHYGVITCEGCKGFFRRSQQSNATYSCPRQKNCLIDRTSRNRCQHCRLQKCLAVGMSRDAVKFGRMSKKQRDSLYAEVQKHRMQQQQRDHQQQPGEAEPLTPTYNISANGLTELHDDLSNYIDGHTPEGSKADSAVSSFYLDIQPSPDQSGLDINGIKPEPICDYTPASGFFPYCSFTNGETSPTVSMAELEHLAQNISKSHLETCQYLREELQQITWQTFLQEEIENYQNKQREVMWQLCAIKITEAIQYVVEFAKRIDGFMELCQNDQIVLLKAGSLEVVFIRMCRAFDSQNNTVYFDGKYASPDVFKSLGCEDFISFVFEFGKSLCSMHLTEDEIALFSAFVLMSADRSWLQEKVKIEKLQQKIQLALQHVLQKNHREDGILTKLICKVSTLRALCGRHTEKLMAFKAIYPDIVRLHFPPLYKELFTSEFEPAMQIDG

[5] = target: T2, Nuclear receptor ROR-alpha; test: Displacement of 25-[3H]hydroxycholesterol from GST-tagged ROR alpha ligand binding domain (unknown origin) expressed in Escherichia coli BL21 gold (DE3) cells by radioligand competition assay
[6] = Plasma concentration in mouse at 10 mg/kg, ip administered as single dose after 8 hrs; format: ADME, organism-based; design: dose 10 mg/kg, route intraperitoneal
[7] = Plasma concentration in mouse at 10 mg/kg, ip administered as single dose after 1 hr; format: ADME, organism-based; design: dose 10 mg/kg, route intraperitoneal
[8] = target: T3, Estrogen-related receptor gamma (Homo sapiens, UniProt P62508); test: Binding affinity to human ERR gamma
T3 sequence (P62508 whole entry): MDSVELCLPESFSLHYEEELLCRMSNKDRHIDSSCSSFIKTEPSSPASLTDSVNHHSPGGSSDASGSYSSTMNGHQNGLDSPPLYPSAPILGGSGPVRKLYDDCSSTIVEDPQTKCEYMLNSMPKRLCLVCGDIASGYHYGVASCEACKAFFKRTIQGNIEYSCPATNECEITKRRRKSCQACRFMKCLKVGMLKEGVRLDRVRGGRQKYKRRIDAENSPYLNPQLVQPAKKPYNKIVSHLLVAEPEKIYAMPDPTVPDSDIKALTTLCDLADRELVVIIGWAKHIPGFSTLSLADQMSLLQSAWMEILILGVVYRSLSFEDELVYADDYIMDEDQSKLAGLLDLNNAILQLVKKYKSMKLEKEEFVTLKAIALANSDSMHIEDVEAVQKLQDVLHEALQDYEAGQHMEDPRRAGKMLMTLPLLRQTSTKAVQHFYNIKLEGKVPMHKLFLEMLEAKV

[9] = target: T4, Nuclear receptor ROR-gamma (Homo sapiens, UniProt P51449); test: Displacement of 25-[3H]hydroxycholesterol from ROR gamma (unknown origin) by competitive binding assay
T4 sequence (P51449 whole entry): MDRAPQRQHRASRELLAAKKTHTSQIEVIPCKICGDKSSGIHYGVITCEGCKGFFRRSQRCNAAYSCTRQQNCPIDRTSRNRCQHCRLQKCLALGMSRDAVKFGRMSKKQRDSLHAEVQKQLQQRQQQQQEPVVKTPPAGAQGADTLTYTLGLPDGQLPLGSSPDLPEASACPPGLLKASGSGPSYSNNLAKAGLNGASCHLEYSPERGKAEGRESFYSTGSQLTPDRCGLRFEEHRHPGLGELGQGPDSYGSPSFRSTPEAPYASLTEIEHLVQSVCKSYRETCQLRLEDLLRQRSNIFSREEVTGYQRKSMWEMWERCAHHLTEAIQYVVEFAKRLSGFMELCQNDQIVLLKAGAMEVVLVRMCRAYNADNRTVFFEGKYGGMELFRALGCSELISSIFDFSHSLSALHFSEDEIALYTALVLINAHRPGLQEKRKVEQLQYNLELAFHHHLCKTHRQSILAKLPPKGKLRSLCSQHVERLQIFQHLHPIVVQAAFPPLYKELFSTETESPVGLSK

[10] = target: T4, Nuclear receptor ROR-gamma
Description: Inverse agonist activity at GAL4-fused ROR gamma (unknown origin) expressed in HEK293 cells assessed as inhibition of transcriptional activity after 24 hrs by luciferase reporter gene assay

[11] = target: T4, Nuclear receptor ROR-gamma; test: Displacement of 25-[3H]hydroxycholesterol from GST-tagged ROR gamma ligand binding domain (unknown origin) expressed in Escherichia coli BL21 gold (DE3) cells by radioligand competition assay
[12] = target: T5, Nuclear receptor ROR-gamma (Homo sapiens) (UniProt P51449); test: Binding affinity to human ROR gamma ligand binding domain assessed as thermal stability shift by circular dichroism analysis
T5 sequence (whole entry): T4 sequence (P51449 whole entry)

[13] = target: T4, Nuclear receptor ROR-gamma; test: Agonist activity at human His6-tagged ROR gamma ligand binding domain (residues 262 to 507) expressed in Escherichia coli BL21 (DE3) cells assessed as increase in recruitment of coactivator peptide by AlphaScreen biochemical assay; format: functional
[14] = target: T4, Nuclear receptor ROR-gamma; test: Agonist activity at full length human ROR gamma expressed in human Jurkat cells assessed as IL17 promoter activation by luciferase reporter gene assay; format: functional, cell-based

OC(c1ccc(-c2ccc(CN3CCN(Cc4ccncc4)CC3)cc2)c(F)c1)(C(F)(F)F)C(F)(F)F
Activity [1]: < 5%

O=S(=O)(Nc1ccc(C(O)(C(F)(F)F)C(F)(F)F)cc1)c1cccs1
concentration at 0.5 h [2]: 9 µM | concentration at 4 h [3]: > 0.36 µM | EC50 [4]: 480 nM | Ki [5]: 220 nM

O=C(Nc1ccc(C(O)(C(F)(F)F)C(F)(F)F)cc1)c1ccc(C(F)(F)F)cc1
concentration at 8 h [6]: > 0.8 µM | concentration at 1 h [7]: 3.6 µM

CC(=O)N1CCN(Cc2ccc(-c3ccc(C(O)(C(F)(F)F)C(F)(F)F)cc3)cc2)CC1
Activity [1]: < 5%

CC(C)(c1ccc(O)cc1)c1ccc(O)cc1 [BISPHENOL A]
Kd [8]: 5.5 nM

CC(c1ccccc1)(c1ccc(O)cc1)c1ccc(O)cc1
IC50 [9]: > 10000 nM

CC(=O)Nc1nc(C)c(S(=O)(=O)Nc2ccc(C(O)(C(F)(F)F)C(F)(F)F)cc2)s1
EC50 [10]: 4000 nM | Ki [11]: 111 nM | EC50 [4]: 4000 nM | Ki [5]: 172 nM

CC(C)CCC(O)[C@@H](C)[C@H]1CC[C@H]2[C@@H]3CC=C4C[C@@H](O)CC[C@]4(C)[C@H]3CC[C@]12C (stereo partly specified)
melting temperature shift (delta Tm) [12]: 7.3 °C

CC(C)[C@@H](O)CC[C@@H](C)[C@H]1CC[C@H]2[C@@H]3CC=C4C[C@@H](O)CC[C@]4(C)[C@H]3CC[C@]12C
Ki [11]: 10 nM

CC(CO)CCC[C@@H](C)[C@H]1CC[C@H]2[C@@H]3CC=C4C[C@@H](O)CC[C@]4(C)[C@H]3CC[C@]12C (stereo partly specified)
EC50 [13]: 20 nM

CC(C)CC[C@@H](O)[C@@H](C)[C@H]1CC[C@H]2[C@@H]3CC=C4C[C@@H](O)CC[C@]4(C)[C@H]3CC[C@]12C [22(R)-HYDROXYCHOLESTEROL]
EC50 [13]: 20 nM

Cc1cccc(C(=O)Nc2cc(-c3ccccc3)no2)c1
melting temperature shift (delta Tm) [12]: 3 °C | EC50 [14]: 100 nM

CCC(C)c1cc(C(C)(C)c2ccc(O)c(C(C)CC)c2)ccc1O (stereo unspecified)
IC50 [9]: 150 nM
